The NIST ThermoML archive (doi:10.1021/acs.jced.6b00430)
Numbers after ± are expanded uncertainties.

Experiment: xn = mol fraction of the nth substance listed
Conditions: 100 kPa, Liquid; for electrical conductivity: Alternating current cell with electrodes; for viscosity: Concentric cylinders viscometry; for mass density: Vibrating tube method

Molecule `O=[PH](O)O` [phosphonic acid] + CN(C)C=O has an electrical conductivity (338.15 K, x1 = 0.6554) of 1.06 ± 0.11 S/m, an electrical conductivity (338.15 K, x1 = 0.682) of 1.39 ± 0.14 S/m and an electrical conductivity (338.15 K, x1 = 0.7694) of 2.29 ± 0.23 S/m. For the same molecule, the electrical conductivity (338.15 K, x1 = 0.7832) was 2.42 ± 0.24 S/m, the viscosity (338.15 K, x1 = 0.1973) was 1.67 ± 0.1 mPa·s and the viscosity (338.15 K, x1 = 0.2507) was 2.45 ± 0.15 mPa·s. The viscosity (338.15 K, x1 = 0.2984) was 3.49 ± 0.21 mPa·s, the viscosity (338.15 K, x1 = 0.3115) was 3.66 ± 0.22 mPa·s and the viscosity (338.15 K, x1 = 0.3491) was 5.02 ± 0.3 mPa·s. The viscosity (338.15 K, x1 = 0.3968) was 7 ± 0.42 mPa·s, the viscosity (338.15 K, x1 = 0.3988) was 6.98 ± 0.42 mPa·s and the viscosity (338.15 K, x1 = 0.4107) was 7.75 ± 0.47 mPa·s. It also gave a viscosity (338.15 K, x1 = 0.4479) of 9.91 ± 0.6 mPa·s, a viscosity (338.15 K, x1 = 0.4968) of 12.7 ± 0.8 mPa·s and a viscosity (338.15 K, x1 = 0.5074) of 11.6 ± 0.7 mPa·s. For the same molecule, the viscosity (338.15 K, x1 = 0.5503) was 17.2 ± 1 mPa·s, the viscosity (338.15 K, x1 = 0.5761) was 18.7 ± 1.1 mPa·s and the viscosity (338.15 K, x1 = 0.5993) was 19.2 ± 1.2 mPa·s. The viscosity (338.15 K, x1 = 0.6261) was 22.6 ± 1.4 mPa·s, the viscosity (338.15 K, x1 = 0.6316) was 22.3 ± 1.3 mPa·s and the viscosity (338.15 K, x1 = 0.6478) was 23.8 ± 1.4 mPa·s. It also gave a viscosity (338.15 K, x1 = 0.6554) of 23.6 ± 1.4 mPa·s, a viscosity (338.15 K, x1 = 0.682) of 25.2 ± 1.5 mPa·s and a viscosity (338.15 K, x1 = 0.7142) of 27 ± 1.6 mPa·s. It also gave a viscosity (338.15 K, x1 = 0.7694) of 28.6 ± 1.7 mPa·s, a viscosity (338.15 K, x1 = 0.7832) of 29.1 ± 1.8 mPa·s and a mass density (338.15 K, x1 = 0.0911) of 954.96 ± 10 kg/m3. The mass density (338.15 K, x1 = 0.1365) was 979.11 ± 10 kg/m3, the mass density (338.15 K, x1 = 0.1798) was 1003.68 ± 10 kg/m3 and the mass density (338.15 K, x1 = 0.1829) was 1004.95 ± 10 kg/m3. It also gave a mass density (338.15 K, x1 = 0.2293) of 1032.82 ± 10 kg/m3, a mass density (338.15 K, x1 = 0.291) of 1068.59 ± 10 kg/m3 and a mass density (338.15 K, x1 = 0.3298) of 1093.82 ± 10 kg/m3. It also gave a mass density (338.15 K, x1 = 0.3442) of 1102.06 ± 10 kg/m3, a mass density (338.15 K, x1 = 0.3712) of 1119.72 ± 10 kg/m3 and a mass density (338.15 K, x1 = 0.3937) of 1133.99 ± 10 kg/m3. The mass density (338.15 K, x1 = 0.4107) was 1155.74 ± 10 kg/m3, the mass density (338.15 K, x1 = 0.421) was 1160.23 ± 10 kg/m3 and the mass density (338.15 K, x1 = 0.4479) was 1172.2 ± 10 kg/m3. The mass density (338.15 K, x1 = 0.4707) was 1187.28 ± 10 kg/m3, the mass density (338.15 K, x1 = 0.493) was 1201.35 ± 10 kg/m3 and the mass density (338.15 K, x1 = 0.5074) was 1210.34 ± 10 kg/m3. The mass density (338.15 K, x1 = 0.5196) was 1220.86 ± 10 kg/m3, the mass density (338.15 K, x1 = 0.5429) was 1236.41 ± 10 kg/m3 and the mass density (338.15 K, x1 = 0.5724) was 1258.27 ± 10 kg/m3. The mass density (338.15 K, x1 = 0.5925) was 1272.25 ± 10 kg/m3, the mass density (338.15 K, x1 = 0.6245) was 1295.1 ± 10 kg/m3 and the mass density (338.15 K, x1 = 0.6554) was 1322.46 ± 10 kg/m3. For the same molecule, the mass density (338.15 K, x1 = 0.6753) was 1331.43 ± 10 kg/m3, the mass density (338.15 K, x1 = 0.6923) was 1345.85 ± 10 kg/m3 and the mass density (338.15 K, x1 = 0.7142) was 1374.38 ± 10 kg/m3. It also gave a mass density (338.15 K, x1 = 0.725) of 1368.62 ± 10 kg/m3, a mass density (338.15 K, x1 = 0.7592) of 1400.4 ± 10 kg/m3 and a mass density (338.15 K, x1 = 0.7694) of 1411.68 ± 10 kg/m3. For the same molecule, the mass density (338.15 K, x1 = 0.7845) was 1422.74 ± 10 kg/m3, the mass density (348.15 K, x1 = 0.0911) was 945.43 ± 10 kg/m3 and the mass density (348.15 K, x1 = 0.1365) was 969.77 ± 10 kg/m3. For the same molecule, the mass density (348.15 K, x1 = 0.1798) was 994.4 ± 10 kg/m3, the mass density (348.15 K, x1 = 0.1829) was 995.9 ± 10 kg/m3 and the mass density (348.15 K, x1 = 0.2293) was 1023.58 ± 10 kg/m3. For the same molecule, the mass density (348.15 K, x1 = 0.291) was 1059.58 ± 10 kg/m3, the mass density (348.15 K, x1 = 0.3298) was 1084.14 ± 10 kg/m3 and the mass density (348.15 K, x1 = 0.3442) was 1093.18 ± 10 kg/m3. For the same molecule, the mass density (348.15 K, x1 = 0.3712) was 1110.71 ± 10 kg/m3, the mass density (348.15 K, x1 = 0.3937) was 1125.23 ± 10 kg/m3 and the mass density (348.15 K, x1 = 0.4107) was 1147 ± 10 kg/m3. It also gave a mass density (348.15 K, x1 = 0.421) of 1150.66 ± 10 kg/m3, a mass density (348.15 K, x1 = 0.4479) of 1158.49 ± 10 kg/m3 and a mass density (348.15 K, x1 = 0.4707) of 1177.52 ± 10 kg/m3. The mass density (348.15 K, x1 = 0.493) was 1192.77 ± 10 kg/m3, the mass density (348.15 K, x1 = 0.5074) was 1201.8 ± 10 kg/m3 and the mass density (348.15 K, x1 = 0.5196) was 1210.75 ± 10 kg/m3. It also gave a mass density (348.15 K, x1 = 0.5429) of 1227.92 ± 10 kg/m3, a mass density (348.15 K, x1 = 0.5724) of 1254.23 ± 10 kg/m3 and a mass density (348.15 K, x1 = 0.5925) of 1263.87 ± 10 kg/m3. It also gave a mass density (348.15 K, x1 = 0.6245) of 1286.78 ± 10 kg/m3, a mass density (348.15 K, x1 = 0.6554) of 1310.01 ± 10 kg/m3 and a mass density (348.15 K, x1 = 0.6753) of 1324.98 ± 10 kg/m3. For the same molecule, the mass density (348.15 K, x1 = 0.6923) was 1337.69 ± 10 kg/m3, the mass density (348.15 K, x1 = 0.7142) was 1366.2 ± 10 kg/m3 and the mass density (348.15 K, x1 = 0.725) was 1373 ± 10 kg/m3. The mass density (348.15 K, x1 = 0.7592) was 1394.6 ± 10 kg/m3, the mass density (348.15 K, x1 = 0.7694) was 1401.02 ± 10 kg/m3 and the mass density (348.15 K, x1 = 0.7845) was 1410.65 ± 10 kg/m3.
